From patent publication US6242494A, “Substituted β-amino acid inhibitors of methionine aminopeptidase-2” (Abbott Laboratories, priority 1999, dated 2001)
Where a name gives a salt, the structure may show the parent alone.

These compounds were tested against T1, methionine aminopeptidase-2 (MetAP2) (Homo sapiens, UniProt P50579) (assay: Inhibition of MetAP2 enzyme activity (96-well, Met-Ala-Ser substrate, L-amino acid oxidase/peroxidase/ortho-dianisidine, 450 nm)). Details: IC50, recombinant MetAP2 4 μg/mL, pH 7.4, Met-Ala-Ser substrate, 20 minutes.
T1 construct: made in house; host or cells: insect cells, baculovirus system (secreted, purified from culture supernatant)
T1 sequence (P50579 whole entry): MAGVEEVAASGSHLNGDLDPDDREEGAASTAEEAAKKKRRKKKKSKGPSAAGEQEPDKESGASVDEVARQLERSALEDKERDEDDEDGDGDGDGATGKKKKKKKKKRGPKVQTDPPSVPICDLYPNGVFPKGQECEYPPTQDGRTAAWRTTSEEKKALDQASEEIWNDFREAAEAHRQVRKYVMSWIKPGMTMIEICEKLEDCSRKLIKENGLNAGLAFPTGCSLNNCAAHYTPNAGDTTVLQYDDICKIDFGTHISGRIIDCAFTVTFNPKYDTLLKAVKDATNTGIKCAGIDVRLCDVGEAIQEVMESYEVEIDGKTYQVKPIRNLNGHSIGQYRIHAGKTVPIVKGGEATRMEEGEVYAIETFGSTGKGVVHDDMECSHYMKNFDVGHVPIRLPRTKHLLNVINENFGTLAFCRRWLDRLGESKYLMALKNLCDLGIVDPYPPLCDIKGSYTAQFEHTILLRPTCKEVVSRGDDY
Type: biochemical
`N[C@H](CC1CCCCC1)C(O)C(=O)NCc1ccccc1Cl` (mixture of isomers) [Example 159, (2RS,3R)-3-amino-N-(2-chlorobenzyl)-4-cyclohexyl-2-hydroxybutanamide] showed an IC50 of 1500 nM. `CCNC(=O)[C@H](C)NC(=O)C(O)[C@H](N)CCSC` (stereo partly drawn) [Example 3, (2RS,3R,1'S)-N-((1-Ethylcarboxamido)ethyl)-3-amino-2-hydroxy-5-(methylthio)pentanamide hydrochloride] gave an IC50 of 10000 nM. With `CC(=O)Nc1ccc(S(=O)(=O)NCCCCNC(=O)C(O)[C@H](N)CC2CCCCC2)cc1` (stereo partly drawn) [Example 86, (2RS,3R)-N-(4-(((4-(acetylamiono)phenyl)sulfonyl)amino)butyl)-3-amino-4-cyclohexyl-2-hydroxybutanamide hydrochloride] the IC50 was 1700 nM. Compound `CCOC(=O)CCCNC(=O)C(O)[C@H](N)CCSCC` (mixture of isomers) [Example 16, (2RS,3R)-N-(3-(carboethoxy)propyl)-3-amino-2-hydroxy-5-(ethylthio)pentanamide hydrochloride] has an IC50 of 780 nM. With `CC(C)(C)C1CCC(NC(=O)C(O)[C@H](N)CC2CCCCC2)CC1` (mixture of isomers) [Example 111, (2RS,3R)-3-Amino-N-(4-(tert-butyl)cyclohexyl)-4-cyclohexyl-2-hydroxybutanamide Hydrochloride] the IC50 was 8200 nM. `N[C@H](CC1CCCCC1)C(O)C(=O)NCCc1ccccc1` (mixture of isomers) [Example 192, (2RS,3R)-3-amino-4-cyclohexyl-2-hydroxy-N-phenethylbutanamide hydrochloride] gave an IC50 of 1200 nM. Compound `N[C@H](CC1CCCCC1)C(O)C(=O)NCc1ccc(Cl)cc1Cl` (stereo partly drawn) [Example 97, (2RS,3R)-3-Amino-4-cyclohexyl)-N-(2,4-dichlorobenzyl)-2-hydroxybutanamide Hydrochloride] has an IC50 of 3000 nM. `COc1cccc(CNC(=O)C(O)[C@H](N)CC2CCCCC2)c1` (mixture of isomers) [Example 189, (2RS,3R)-3-amino-4-cyclohexyl-2-hydroxy-N-(3-methoxybenzyl)butanamide hydrochloride] was tested, and the IC50 was 1500 nM. With `C[C@H](NC(=O)C(O)[C@H](N)CC1CCCCC1)C(=O)Nc1ccc([N+](=O)[O-])cc1O` (stereo partly drawn) [Example 71, ((2RS,3R)-3-amino-2-hydroxy-4-cyclohexyl)butanoyl-L-alanyl-(4-nitro-2-hydroxyphen-1-yl)amide hydrochloride] the IC50 was 12000 nM. In the case of `N[C@H](CC1CCCCC1)C(O)C(=O)N[C@@H](CO)C(=O)OCc1ccc(C(F)(F)F)cc1` (stereo partly drawn) [Example 140, 4-(trifluoromethyl)benzyl (2RS,3R,2'S)-2-((3-amino-4-cyclohexyl-2-hydroxybutanoyl)amino)-3-hydroxypropanoate trifluoroacetate], the IC50 is reported as 2200 nM. Compound `C[C@H](NC(=O)C(O)[C@H](N)CC1CCCCC1)C(=O)NCCNc1ccc([N+](=O)[O-])cn1` (stereo partly drawn) [Example 62, ((2RS,3R)-3-amino-2-hydroxy-4-cyclohexyl)butanoyl-L-alanyl-(5-nitropyridylaminoethyl)amide dihydrochloride] has an IC50 of 7600 nM. With `COc1ccc2[nH]cc(CCNC(=O)C(O)[C@H](N)CC3CCCCC3)c2c1` (some centres unmarked) [Example 58] the IC50 was 3500 nM. `N[C@H](CC1CCCCC1)C(O)C(=O)NCc1nc2ccccc2[nH]1` (stereo partly drawn) [Example 60, (2RS,3R) N-(2-aminomethylbenzimidazolyl) 3-amino-2-hydroxy-4-cyclohexyl)butanamide hydrochloride] gave an IC50 of 18000 nM. In the case of `COc1ccc(CCNC(=O)C(O)[C@H](N)CCSC)cc1` (stereo partly drawn) [Example 27, (2RS,3R)-3-amino-2-hydroxy-N-(4-methoxyphenethyl)-5-(methylthio)pentanamidehydrochloride], the IC50 is reported as 1700 nM. Work on `CCC(=O)OC[C@@H](C)NC(=O)C(O)[C@H](N)CC1CCCCC1` (some centres unmarked) [Example 51, hydrochloride] yielded an IC50 of 5000 nM. With `C[C@H](NC(=O)C(O)[C@H](N)CC1CCCCC1)c1cccc2ccccc12` (mixture of isomers) [Example 133, (2RS,3R)-3-amino-4-cyclohexyl-2-hydroxy-N-((1S)-1-(1-naphthyl)ethyl)butanamide hydrochloride] the IC50 was 270 nM. `CCSCC[C@@H](NC(=O)CO)C(O)C(=O)NCCCCc1ccccc1` (some centres unmarked) [Example 40, hydrochloride] showed an IC50 of 81000 nM. Compound `COc1ccc(C(F)(F)F)cc1NC(=O)C(O)[C@H](N)CC1CCCCC1` (mixture of isomers) [Example 220, (2RS,3R)-3-amino-4-cyclohexyl-2-hydroxy-N-(2-methoxy-5-(trifluoromethyl)phenyl)butanamide Hydrochloride] has an IC50 of 5500 nM. For `CCOc1ccccc1NC(=O)C(O)[C@H](N)CC1CCCCC1` (mixture of isomers) [Example 175, (2RS,3R)-3-amino-4-cyclohexyl-N-(2-ethoxyphenyl)-2-hydroxybutanamide hydrochloride], the IC50 was 2100 nM. `N[C@H](CC1CCCCC1)C(O)C(=O)NCCNc1ccc([N+](=O)[O-])cn1` (stereo partly drawn) [Example 57, (2RS,3R) N-(5-nitropyridyl-2-aminoethyl) 3-amino-2-hydroxy-4-cyclohexyl)butanamide dihydrochloride] gave an IC50 of 3100 nM. `C[C@H](NC(=O)C(O)[C@H](N)CC1CCCCC1)C(=O)OC1CCCCC1` (stereo partly drawn) [Example 90, (2RS,3R)-3-Amino-2-hydroxy-4-cyclohexyl)butanoyl-L-alanine Cyclohexyl Ester Hydrochloride] was tested, and the IC50 was 2300 nM. Compound `COc1ccc(CNC(=O)C(O)[C@H](N)CC2CCCCC2)cc1` (mixture of isomers) [Example 186, (2RS,3R)-3-amino-4-cyclohexyl-2-hydroxy-N-(4-methoxybenzyl)butanamide hydrochloride] has an IC50 of 1100 nM. `CC(C)CCCC(C)NC(=O)C(O)[C@H](N)CC1CCCCC1` (stereo partly drawn) [Example 211, (2RS,3R)-3-amino-4-cyclohexyl-N-(1.5-dimethylhexyl)-2-hydroxybutanamide Hydrochloride] showed an IC50 of 2400 nM. `C[C@H](NC(=O)C(O)[C@H](N)CC1CCCCC1)C(=O)OCc1ccccc1` (stereo partly drawn) [Example 53, (2RS,3R,1'S)-N-((1-benzyloxycarbonylethyl)-3-amino-2hydroxy-$-cyclohexyl)butanamide hydrochloride] was tested, and the IC50 was 1800 nM. `Cc1ccc(NC(=O)C(O)[C@H](N)CC2CCCCC2)cc1` (mixture of isomers) [Example 143, (2RS,3R)-3-amino-4-cyclohexyl-2-hydroxy-N-(4-methylphenyl)butanamide] showed an IC50 of 870 nM. `N[C@H](CC1CCCCC1)C(O)C(=O)NC1CCCCC1` (mixture of isomers) [Example 206, (2RS,3R)-3-amino-N,4-dicyclohexyl-2-hydroxybutanamide Hydrochloride] was tested, and the IC50 was 10000 nM. With `N[C@H](CC1CCCCC1)C(O)C(=O)NCCc1cccc(F)c1` (mixture of isomers) [Example 166, (2RS,3R)-3-amino-4-cyclohexyl-N-(3-fluorophenethyl)-2-hydroxybutanamide hydrochloride] the IC50 was 590 nM. Compound `CC(Cc1cccc(C(F)(F)F)c1)NC(=O)C(O)[C@H](N)CC1CCCCC1` (mixture of isomers) [Example 210, (2RS,3R)-3-amino-4-cyclohexyl-2-hydroxy-N-(1-methyl-2-(3-(trifluoromethyl)phenyl)ethyl)butanamide Hydrochloride] has an IC50 of 2300 nM.

Same assay, conditions: recombinant MetAP2 4 μg/mL, pH 7.4, Met-Ala-Ser substrate, 20 minutes; read-out: IC50
Work on `CCSC(C)[C@H](NC(=O)OC(C)(C)C)C(O)C(=O)NC(=O)CCCc1ccccc1` (mixture of isomers) [Example 37, (2RS,3R)-N-((phenylbutyryl)-3-tert-butoxycarbonylamino-2-hydroxy-4-ethylthio)pentanamide] yielded an IC50 of 16000 nM.
